Results from patent publication US10968200B2, “Salts of an LSD1 inhibitor and processes for preparing the same” (priority 2018, dated 2021).
Where a name gives a salt, the structure may show the parent alone. Read-outs that look alike come from different tables or passages of the source.

Columns and labels:
[1] = Solubility measurement of Compound 1 di-HCl in various solvents; assay type: physicochemical; conditions: organic solvent or mixture, thermodynamic from solid; for solubility at 36 h: 25 °C, 25±1° C., agitated 36 h; for solubility at 24 h: 50 °C, 50±1° C., agitated 24 h
Experimental: The solubility of Compound 1 di-HCl was measured at 25±1° C. and 50±1° C. according to the following procedures.
Compound 1 di-HCl was added to 2 mL of a solvent listed in Table 3 at 25±1° C. until the solution became cloudy. Another 10 mg of Compound 1 di-HCl was then added. The mixture was agitated at 25±1° C. for 36 h. The supernatant was filtered using a syringe filter. The saturated solution was pipetted into an HPLC vial, which was diluted with acetonitrile. The solubility of Compound 1 di-HCl was calculated for each solvent.
Compound 1 di-HCl was added to 2 mL of a solvent listed in Table 3 at 50±1° C. until the solution became cloudy. Another 20-25 mg of Compound 1 di-HCl was then added. The mixture was agitated at 50±1° C. for 24 h. The supernatant was filtered using a warmed syringe filter at 50±1° C. The saturated solution was pipetted into an HPLC vial, which was diluted with acetonitrile. The solubility of Compound 1 di-HCl was calculated for each solvent.

[2] = as above; assay type: physicochemical; conditions: thermodynamic from solid; for solubility: by vision; for solubility at 24 h: agitated 24 h

solubility at 36 h ([1]; solvent 2-Methoxyethanol): 45900 µg/mL
solubility at 36 h ([1]; solvent Acetone): 3490 µg/mL
solubility at 36 h ([1]; solvent IPA): 1310 µg/mL
solubility at 36 h ([1]; solvent MeCN): 610 µg/mL
solubility at 36 h ([1]; solvent Methanol): 32300 µg/mL
solubility at 36 h ([1]; solvent n-BuOH): 1310 µg/mL
solubility at 24 h ([1]; solvent 1,4-Dioxane): 310 µg/mL
solubility at 24 h ([1]; solvent 1-Propanol): 5210 µg/mL
solubility at 24 h ([1]; solvent Dichloromethane): 60 µg/mL
solubility at 24 h ([1]; solvent EtOAc): 30 µg/mL
solubility at 24 h ([1]; solvent EtOH): 3630 µg/mL
solubility at 24 h ([1]; solvent Ethyl formate): 50 µg/mL
solubility at 24 h ([1]; solvent MEK): 160 µg/mL
solubility at 24 h ([1]; solvent MIBK): 130 µg/mL
solubility at 24 h ([1]; solvent MeCN): 6290 µg/mL
solubility at 24 h ([1]; solvent THF): 90 µg/mL
solubility at 36 h ([2]; 25 °C, organic solvent or mixture, solvent 1,4-Dioxane, 25±1° C., agitated 36 h): 200 µg/mL
solubility at 36 h ([2]; 25 °C, organic solvent or mixture, solvent 1-Propanol, 25±1° C., agitated 36 h): 4600 µg/mL
solubility at 36 h ([2]; 25 °C, organic solvent or mixture, solvent 5% Water in ACN, 25±1° C.): > 50000 µg/mL
solubility ([2]; 25 °C, organic solvent or mixture, solvent 5% Water in MeOH, 25±1° C., read-out: Solubility at 25° C.): > 50000 µg/mL
solubility ([2]; 25 °C, organic solvent or mixture, solvent ACN/water (9:1), 25±1° C., read-out: Solubility at 25° C.): > 50000 µg/mL
solubility ([2]; 25 °C, organic solvent or mixture, solvent ACN:Water (4:1), 25±1° C., read-out: Solubility at 25° C.): > 50000 µg/mL
solubility ([2]; 25 °C, organic solvent or mixture, solvent Chloroform, 25±1° C., read-out: Solubility at 25° C.): > 50000 µg/mL
solubility ([2]; 25 °C, organic solvent or mixture, solvent DMF, 25±1° C., read-out: Solubility at 25° C.): > 50000 µg/mL
solubility ([2]; 25 °C, organic solvent or mixture, solvent DMSO, 25±1° C., read-out: Solubility at 25° C.): > 50000 µg/mL
solubility at 36 h ([2]; 25 °C, organic solvent or mixture, solvent EtOH, 25±1° C., agitated 36 h): 3370 µg/mL
solubility at 36 h ([2]; 25 °C, organic solvent or mixture, solvent Ethyl formate, 25±1° C., agitated 36 h): 90 µg/mL
solubility at 36 h ([2]; 25 °C, organic solvent or mixture, solvent MEK, 25±1° C., agitated 36 h): 160 µg/mL
solubility at 36 h ([2]; 25 °C, organic solvent or mixture, solvent MIBK, 25±1° C., agitated 36 h): 60 µg/mL
solubility ([2]; 25 °C, organic solvent or mixture, solvent MeOH/ACN (10 v/3 v), 25±1° C., read-out: Solubility at 25° C.): > 50000 µg/mL
solubility ([2]; 25 °C, organic solvent or mixture, solvent MeOH/Water/ACN (6.0/0.5/1.0), 25±1° C., read-out: Solubility at 25° C.): > 50000 µg/mL
solubility ([2]; 25 °C, organic solvent or mixture, solvent MeOH/water/ACN (6 v/0.5 v/3.5 v), 25±1° C., read-out: Solubility at 25° C.): > 50000 µg/mL
solubility at 36 h ([2]; 25 °C, organic solvent or mixture, solvent MeOH/water/ACN (6 v/1 v/3 v), 25±1° C.): > 50000 µg/mL
solubility ([2]; 25 °C, organic solvent or mixture, solvent MeOH/water/ACN (6 v/1.5 v/3 v), 25±1° C., read-out: Solubility at 25° C.): > 50000 µg/mL
solubility at 36 h ([2]; 25 °C, organic solvent or mixture, solvent THF, 25±1° C., agitated 36 h): 40 µg/mL
solubility ([2]; 25 °C, solvent Water, 25±1° C., read-out: Solubility at 25° C.): > 50000 µg/mL
solubility at 24 h ([2]; 50 °C, organic solvent or mixture, solvent 2-Methoxyethanol, 50±1° C.): 48300 µg/mL
solubility at 24 h ([2]; 50 °C, organic solvent or mixture, solvent 5% Water in ACN, 50±1° C.): 45400 µg/mL
solubility ([2]; 50 °C, organic solvent or mixture, solvent 5% Water in MeOH, 50±1° C., read-out: Solubility at 50° C.): > 50000 µg/mL
solubility ([2]; 50 °C, organic solvent or mixture, solvent ACN/water (9:1), 50±1° C., read-out: Solubility at 50° C.): > 50000 µg/mL
solubility ([2]; 50 °C, organic solvent or mixture, solvent ACN:Water (4:1), 50±1° C., read-out: Solubility at 50° C.): > 50000 µg/mL
solubility at 24 h ([2]; 50 °C, organic solvent or mixture, solvent Acetone, 50±1° C.): 850 µg/mL
solubility ([2]; 50 °C, organic solvent or mixture, solvent Chloroform, 50±1° C., read-out: Solubility at 50° C.): > 50000 µg/mL
solubility ([2]; 50 °C, organic solvent or mixture, solvent DMF, 50±1° C., read-out: Solubility at 50° C.): > 50000 µg/mL
solubility ([2]; 50 °C, organic solvent or mixture, solvent DMSO, 50±1° C., read-out: Solubility at 50° C.): > 50000 µg/mL
solubility at 24 h ([2]; 50 °C, organic solvent or mixture, solvent IPA, 50±1° C.): 1910 µg/mL
solubility ([2]; 50 °C, organic solvent or mixture, solvent MeOH/ACN (10 v/3 v), 50±1° C., read-out: Solubility at 50° C.): > 50000 µg/mL
solubility ([2]; 50 °C, organic solvent or mixture, solvent MeOH/Water/ACN (6.0/0.5/1.0), 50±1° C., read-out: Solubility at 50° C.): > 50000 µg/mL
solubility ([2]; 50 °C, organic solvent or mixture, solvent MeOH/water/ACN (6 v/0.5 v/3.5 v), 50±1° C., read-out: Solubility at 50° C.): > 50000 µg/mL
solubility ([2]; 50 °C, organic solvent or mixture, solvent MeOH/water/ACN (6 v/1 v/3 v), 50±1° C., read-out: Solubility at 50° C.): > 50000 µg/mL
solubility ([2]; 50 °C, organic solvent or mixture, solvent MeOH/water/ACN (6 v/1.5 v/3 v), 50±1° C., read-out: Solubility at 50° C.): > 50000 µg/mL
solubility at 24 h ([2]; 50 °C, organic solvent or mixture, solvent Methanol, 50±1° C.): > 50000 µg/mL
solubility at 24 h ([2]; 50 °C, organic solvent or mixture, solvent n-BuOH, 50±1° C.): 2340 µg/mL
solubility ([2]; 50 °C, solvent Water, 50±1° C., read-out: Solubility at 50° C.): > 50000 µg/mL
solubility ([2]; MeOH/water/ACN (5 v/2 v/3 v), 25 °C, organic solvent or mixture, solvent Me0H/water/ACN (5 v/2 v/3 v), 25±1° C., read-out: Solubility at 25° C.): > 50000 µg/mL
solubility ([2]; MeOH/water/ACN (5 v/2 v/3 v), 50 °C, organic solvent or mixture, solvent Me0H/water/ACN (5 v/2 v/3 v), 50±1° C., read-out: Solubility at 50° C.): > 50000 µg/mL
SMILES: N#CCC1(N2CCC(N[C@@H]3C[C@H]3c3ccccc3)CC2)CN(S(N)(=O)=O)C1 [Compound 1 di-HCl, 3-(cyanomethyl)-3-(4-{[(1R,2S)-2-phenylcyclopropyl]amino}piperidin-1-yl)azetidine-1-sulfonamide dihydrochloride]
